One may read the Ki as a dissociation constant, usually derived from enzyme kinetics or from competition with a known ligand.

Counter-ions that a name gives are not always drawn.

HPK full length, T165E S171E, sequence (Q92918 whole entry T165E/S171E, looked up): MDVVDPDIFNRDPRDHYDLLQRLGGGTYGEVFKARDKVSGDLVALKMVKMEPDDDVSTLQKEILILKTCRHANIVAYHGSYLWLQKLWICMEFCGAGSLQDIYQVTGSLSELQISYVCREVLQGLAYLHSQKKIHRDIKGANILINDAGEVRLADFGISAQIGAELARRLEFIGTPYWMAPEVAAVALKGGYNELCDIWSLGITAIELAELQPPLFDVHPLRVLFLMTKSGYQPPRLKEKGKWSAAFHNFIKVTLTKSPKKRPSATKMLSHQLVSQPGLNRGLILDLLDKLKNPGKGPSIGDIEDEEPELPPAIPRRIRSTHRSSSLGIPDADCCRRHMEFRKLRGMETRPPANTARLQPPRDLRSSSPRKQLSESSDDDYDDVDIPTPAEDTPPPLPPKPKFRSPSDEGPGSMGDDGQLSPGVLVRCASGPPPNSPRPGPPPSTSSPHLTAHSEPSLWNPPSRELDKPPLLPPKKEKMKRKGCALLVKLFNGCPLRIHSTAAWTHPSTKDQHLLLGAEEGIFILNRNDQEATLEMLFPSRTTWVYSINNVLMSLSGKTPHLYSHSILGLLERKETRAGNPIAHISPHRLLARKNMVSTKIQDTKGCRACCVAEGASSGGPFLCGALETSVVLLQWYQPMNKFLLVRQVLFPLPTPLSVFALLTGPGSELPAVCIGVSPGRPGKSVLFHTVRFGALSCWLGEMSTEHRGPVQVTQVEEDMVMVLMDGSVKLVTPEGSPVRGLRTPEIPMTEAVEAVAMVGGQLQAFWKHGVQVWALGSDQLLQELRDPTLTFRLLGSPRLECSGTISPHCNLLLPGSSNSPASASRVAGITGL

The first experiment concerns the target HPK full length, T165E S171E (Homo sapiens (Human), UniProt Q92918, S171E/T165E). The experiment in a line: HPK1-FL HTRF enzymatic assay ("HTRF"). The class given is biochemical. The following applies: ATP 1 mM, read-out: HPK1 Ki. Here is the method: Assay Principle: HPK-FL enzyme phosphorylates Biotin-SLP-76 substrate in the presence of ATP at […] and varying concentrations of test compound. Product is detected by FRET using Eu-anti-pSLP76 Ab and SA-XL665. Also see www.cisbio.com/HTRF for additional HTRF technology information.
Instrumentation: Echo555 compound dispenser; Agilent Bravo; Perkin Elmer Envision.
To a 384 well Proxiplate with 80 nL compound or DMSO spotted on was added 4 μl/well kinase mix. The mixture was preincubated for 30 minutes and then 4 μl/well substrate mix was added. The solution was incubated for 60 min and then 4 μl/well detection mix was added. The solution was incubated for another 60 min.
Exemplary compounds were tested in the HTRF binding assays.
In general terms: Time-resolved FRET reads energy transfer from a long-lived donor to a nearby acceptor.
As for `Cc1c(-c2cc3cc(NC(=O)O[C@H]4C[C@H](N(C)C)C4)ncc3c(N)c2F)cnc2c1NCCO2` [Compound 447a, (1r,3r)-3-(Dimethylamino)cyclobutyl (8-amino-7-fluoro-6-(8-methyl-2,3-dihydro-1H-pyrido[2,3-b][1,4]oxazin-7-yl)isoquinolin-3-yl)carbamate hydrochloride], the inhibitory constant (Ki) is less than 0.013 nM. On the same count and under the same terms, next, `Cc1c(-c2cc3cc(NC(=O)O[C@H]4C[C@@H](C(C)(C)C#N)C4)ncc3c(N)c2F)cnc2c1NCCO2` [Compound 549a, (1s,3s)-3-(2-Cyanopropan-2-yl)cyclobutyl (8-amino-7-fluoro-6-(8-methyl-2,3-dihydro-1H-pyrido[2,3-b][1,4]oxazin-7-yl)isoquinolin-3-yl)carbamate]: less than 0.013 nM; `Cc1c(-c2cc3cc(NC(=O)N[C@H]4CCN(C)C[C@@H]4F)ncc3c(N)c2F)cnc2c1NCCO2` (single isomer, unassigned) [Compound 703b]: less than 0.013 nM. Take `Cc1c(-c2cc3cc(NC(=O)O[C@H]4CCO[C@@H]4C)ncc3c(N)c2F)cnc2c1NCCO2` (single isomer, unassigned) [Compound 510b]: the Ki came to 0.308 nM. `CC(=O)N[C@H]1CCCC[C@@H]1OC(=O)Nc1cc2cc(-c3cnc4c(c3C)NCCO4)c(F)c(N)c2cn1` (single isomer, unassigned) [Compound 414a]: the Ki worked out at 0.59 nM.

With `Cc1c(-c2cc3cc(NC(=O)N4CC5(CCOCC5)C4)ncc3c(N)c2F)cnc2c1NCCO2` [Compound 753, N-(8-Amino-7-fluoro-6-(8-methyl-2,3-dihydro-1H-pyrido[2,3-b][1,4]oxazin-7-yl)isoquinolin-3-yl)-7-oxa-2-azaspiro[3.5]nonane-2-carboxamide], the Ki amounted to 0.039 nM. With `Cc1c(-c2cc3cc(NC(=O)O[C@H]4CCN(C5COC5)C[C@H]4F)ncc3c(N)c2F)cnc2c1NCCO2` [Compound 445d, (3R,4S)-3-Fluoro-1-(oxetan-3-yl)piperidin-4-yl (8-amino-7-fluoro-6-(8-methyl-2,3-dihydro-1H-pyrido[2,3-b][1,4]oxazin-7-yl)isoquinolin-3-yl)carbamate], the Ki was less than 0.013 nM.

For `CO[C@H]1COCC[C@H]1OC(=O)Nc1cc2cc(-c3cnc4c(c3C)NCCO4)c(F)c(N)c2cn1` (single isomer, unassigned) [Compound 583b], the inhibition constant Ki stood at 0.021 nM.

For `CC(=O)N[C@@H]1CCCC[C@H]1OC(=O)Nc1cc2cc(-c3cnc4c(c3C)NCCO4)c(F)c(N)c2cn1` (single isomer, unassigned) [Compound 414b], the Ki was 21 nM. As for `Cc1c(-c2cc3cc(NC(=O)O[C@@H]4CCNC4)ncc3c(N)c2F)cnc2c1NCCO2` (single isomer, unassigned) [Compound 405a], the Ki amounted to 0.138 nM.

In the case of `Cc1c(-c2cc(N)c3cnc(NC(=O)O[C@@H]4COC[C@H]4C)cc3c2)cnc2c1NCCO2` (single isomer, unassigned) [Compound 556b, hydrochloride], the inhibition constant (Ki) was less than 0.013 nM. For the compound `Cc1c(-c2cc3cc(NC(=O)O[C@H]4CC(=O)N(C)C4)ncc3c(N)c2F)cnc2c1NCCO2` (single isomer, unassigned) [Compound 410a], the inhibitory constant (Ki) is 0.167 nM. Turning to `Cc1c(-c2cc3cc(NC(=O)OC4CN(C(=O)[C@@H]5C[C@H]5F)C4)ncc3c(N)c2F)cnc2c1NCCO2` (single isomer, unassigned) [Compound 545b], the inhibition constant (Ki) was 0.018 nM. Take `Cc1c(-c2cc3cc(NC(=O)O[C@@H]4COC[C@H]4C)ncc3c(N)c2F)cnc2c1NCCO2` (single isomer, unassigned) [Compound 441a]: the Ki was less than 0.013 nM. With `Cc1c(-c2cc3cc(NC(=O)OC4CC5(CCN(C)CC5)C4)ncc3c(N)c2F)cnc2c1NCCO2` [Compound 427, 7-Methyl-7-azaspiro[3.5]nonan-2-yl (8-amino-7-fluoro-6-(8-methyl-2,3-dihydro-1H-pyrido[2,3-b][1,4]oxazin-7-yl)isoquinolin-3-yl)carbamate], the inhibition constant (Ki) is less than 0.013 nM.

In the case of `Cc1c(-c2cc3cc(NC(=O)OC4CC(O)(C5CC5)C4)ncc3c(N)c2F)cnc2c1NCCO2` (stereo not drawn) [Compound 551a, (3-Cyclopropyl-3-hydroxy-cyclobutyl) N-[8-amino-7-fluoro-6-(8-methyl-2,3-dihydro-1H-pyrido[2,3-b][1,4]oxazin-7-yl)-3-isoquinolyl]carbamate], the Ki is less than 0.013 nM. Take `Cc1c(-c2cc3cc(NC(=O)OC4CN(C(C)C)C4)ncc3c(N)c2F)cnc2c1NCCO2` [Compound 419, (1-Isopropylazetidin-3-yl) N-[8-amino-7-fluoro-6-(8-methyl-2,3-dihydro-1H-pyrido[2,3-b][1,4]oxazin-7-yl)-3-isoquinolyl]carbamate]: the Ki was 0.061 nM. The same measure, in the same setting: the figure for `Cc1c(-c2cc3cc(NC(=O)N[C@H]4C[C@H](F)C4)ncc3c(N)c2F)cnc2c1NCCC2` [Compound 732a, 1-(8-amino-7-fluoro-6-(4-methyl-5,6,7,8-tetrahydro-1,5-naphthyridin-3-yl)isoquinolin-3-yl)-3-((1r,3r)-3-fluorocyclobutyl)urea] is less than 0.013 nM; for `Cc1c(-c2cc3cc(NC(=O)O[C@@H]4CC[C@@](C)(O)C4)ncc3c(N)c2F)cnc2c1NCCO2` (single isomer, unassigned) [Compound 533a, hydrochloride] it is 0.035 nM; for `Cc1c(-c2cc3cc(NC(=O)O[C@H]4COC[C@@H]4C#N)ncc3c(N)c2F)cnc2c1NCCO2` (single isomer, unassigned) [Compound 538b] it is 0.016 nM.

Regarding `Cc1c(-c2cc3cc(NC(=O)O[C@H]4Cc5ncnn5C4)ncc3c(N)c2F)cnc2c1NCCO2` (single isomer, unassigned) [Compound 578b], the Ki amounted to 0.15 nM. As for `Cc1c(-c2cc3cc(NC(=O)OC4C5COCC4CN(C)C5)ncc3c(N)c2F)cnc2c1NCCO2` (single isomer, unassigned) [Compound 439a], the Ki was less than 0.013 nM. `Cc1c(-c2cc3cc(NC(=O)OC4CCC4)ncc3c(N)c2F)cnc2c1NCCO2` [Compound 487, Cyclobutyl (8-amino-7-fluoro-6-(8-methyl-2,3-dihydro-1H-pyrido[2,3-b][1,4]oxazin-7-yl)isoquinolin-3-yl)carbamate]: the Ki was less than 0.013 nM. As for `CCc1c(-c2cc3cc(NC(=O)O[C@H]4COC[C@@H]4C)ncc3c(N)c2F)cnc2c1NCCO2` (single isomer, unassigned) [Compound 555a, hydrochloride], the inhibitory constant (Ki) is less than 0.013 nM. Still for that read-out and setting: next, `Cc1c(-c2cc3cc(NC(=O)O[C@@H]4C[C@](C)(O)[C@@H]4C)ncc3c(N)c2F)cnc2c1NCCO2` [Compound 526a, (1R,2R,3S)-3-Hydroxy-2,3-dimethylcyclobutyl (8-amino-7-fluoro-6-(8-methyl-2,3-dihydro-1H-pyrido[2,3-b][1,4]oxazin-7-yl)isoquinolin-3-yl)carbamate]: 0.015 nM; `Cc1c(-c2cc3cc(NC(=O)O[C@@H]4CCOC4)ncc3c(N)c2F)cnc2c1[C@H](O)CC2` [Compound 548b, (R)-tetrahydrofuran-3-yl (8-amino-7-fluoro-6-((R)-5-hydroxy-4-methyl-6,7-dihydro-5H-cyclopenta[b]pyridin-3-yl)isoquinolin-3-yl)carbamate]: 93 nM. For `Cc1c(-c2cc3cc(NC(=O)NC4CN(CC(F)(F)F)C4)ncc3c(N)c2F)cnc2c1NCCO2` [Compound 721, 1-(8-Amino-7-fluoro-6-(8-methyl-2,3-dihydro-1H-pyrido[2,3-b][1,4]oxazin-7-yl)isoquinolin-3-yl)-3-(1-(2,2,2-trifluoroethyl)azetidin-3-yl)urea], the inhibitory constant (Ki) was less than 0.013 nM. In the case of `CN[C@H]1CCCC[C@@H]1OC(=O)Nc1cc2cc(-c3cnc4c(c3C)NCCO4)c(F)c(N)c2cn1` (single isomer, unassigned) [Compound 415a], the inhibition constant Ki stood at 3 nM. With `Cc1c(-c2cc3cc(NC(=O)OC4CC5COCC(C4)N5C)ncc3c(N)c2F)cnc2c1NCCO2` (stereo not drawn) [Compound 406, 9-Methyl-3-oxa-9-azabicyclo[3.3.1]nonan-7-yl (8-amino-7-fluoro-6-(8-methyl-2,3-dihydro-1H-pyrido[2,3-b][1,4]oxazin-7-yl)isoquinolin-3-yl)carbamate], the Ki turned out to be 0.4 nM.

Still in this experiment, the particulars now being: HPK1 Ki, ATP 1 mM.
`CO[C@@H]1CC[C@H](NC(=O)Nc2cc3cc(-c4cnc5c(c4C)NCCO5)c(F)c(N)c3cn2)C1` [Compound 730d, 1-(8-amino-7-fluoro-6-(8-methyl-2,3-dihydro-1H-pyrido[2,3-b][1,4]oxazin-7-yl)isoquinolin-3-yl)-3-((1S,3R)-3-methoxycyclopentyl)urea] showed an inhibitory constant (Ki) of less than 0.013 nM. In turn, `Cc1c(-c2cc3cc(NC(=O)O[C@H]4CCN([C@@H]5CCOC5)C[C@H]4F)ncc3c(N)c2F)cnc2c1NCCO2` [Compound 569d, (3R,4S)-3-fluoro-1-((R)-tetrahydrofuran-3-yl)piperidin-4-yl (8-amino-7-fluoro-6-(8-methyl-2,3-dihydro-1H-pyrido[2,3-b][1,4]oxazin-7-yl)isoquinolin-3-yl)carbamate] yielded a Ki of 0.031 nM. `Cc1c(-c2cc3cc(NC(=O)O[C@@H]4CN(C)C[C@H]4F)ncc3c(N)c2F)cnc2c1NCCO2` [Compound 452b, (3R,4R)-4-Fluoro-1-methylpyrrolidin-3-yl (8-amino-7-fluoro-6-(8-methyl-2,3-dihydro-1H-pyrido[2,3-b][1,4]oxazin-7-yl)isoquinolin-3-yl)carbamate] came in with a Ki of 0.036 nM.

As for `Cc1c(-c2cc3cc(NC(=O)O[C@@H]4CC[C@H]4O)ncc3c(N)c2F)cnc2c1NCCO2` [Compound 542d, (1R,2R)-2-Hydroxycyclobutyl (8-amino-7-fluoro-6-(8-methyl-2,3-dihydro-1H-pyrido[2,3-b][1,4]oxazin-7-yl)isoquinolin-3-yl)carbamate hydrochloride], the affinity corresponds to a Ki of 0.014 nM.

These data come from patent publication US11612606B2, “8-aminoisoquinoline compounds and uses thereof” (priority 2018, dated 2023).
